Measurements as given in publication PMC11638952, “Fine-Tuning the Function of Farnesene Synthases for Selective Synthesis of Farnesene Stereoisomers” (Journal of Agricultural and Food Chemistry, 2024).

Columns and labels:
Conditions in all cases: 50 mM Tris-HCl pH 8.0, 10 μM MgCl2, 30 °C, 10 min, FPP 2-80 μM
AaFS [1] = target: T1, AaFS (Artemisia annua, UniProt Q9FXY7)
T1 construct: gene CASC125
Source text: (§1) steady-state kinetics, product quantified by peak area after hexane extraction on AaFS

AaFS [2] = target: T2, AaFS (Artemisia annua, UniProt Q9FXY7, L326I, form not given)
T2 construct: gene CASC125
Source text: as §1

AaFS [3] = target: T3, AaFS (Artemisia annua, UniProt Q9FXY7, M436I, form not given)
T3 construct: gene CASC125
Source text: as §1

AaFS [4] = target: T4, AaFS (Artemisia annua, UniProt Q9FXY7, W299C, form not given)
T4 construct: gene CASC125
Source text: as §1

T3 sequence (Q9FXY7 whole entry M436I, form open): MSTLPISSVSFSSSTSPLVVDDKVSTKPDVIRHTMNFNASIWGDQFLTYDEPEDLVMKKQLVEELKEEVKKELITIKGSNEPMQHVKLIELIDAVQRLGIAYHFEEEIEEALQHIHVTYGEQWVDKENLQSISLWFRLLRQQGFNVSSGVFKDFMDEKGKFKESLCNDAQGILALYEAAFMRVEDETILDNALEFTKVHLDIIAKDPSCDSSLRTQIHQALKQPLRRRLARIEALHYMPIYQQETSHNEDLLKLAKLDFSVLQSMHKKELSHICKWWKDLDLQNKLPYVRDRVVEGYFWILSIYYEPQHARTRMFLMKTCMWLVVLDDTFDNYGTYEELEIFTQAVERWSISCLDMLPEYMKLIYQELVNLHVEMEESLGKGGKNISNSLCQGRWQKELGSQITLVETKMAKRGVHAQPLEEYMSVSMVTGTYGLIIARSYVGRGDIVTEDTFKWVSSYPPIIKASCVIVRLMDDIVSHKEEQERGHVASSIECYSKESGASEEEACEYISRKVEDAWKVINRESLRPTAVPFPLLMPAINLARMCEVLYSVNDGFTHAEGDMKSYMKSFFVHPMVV
T1 sequence (Q9FXY7 whole entry): as the sequence (Q9FXY7 whole entry M436I, form open) above, with I436M counted along it
T2 sequence (Q9FXY7 whole entry L326I, form open): as the sequence (Q9FXY7 whole entry M436I, form open) above, with L326I, I436M counted along it
T4 sequence (Q9FXY7 whole entry W299C, form open): as the sequence (Q9FXY7 whole entry M436I, form open) above, with W299C, I436M counted along it

Km (AaFS [1]): 14.3 ± 2.3 µM
Km (AaFS [2]): 6.75 ± 3.7 µM
Km (AaFS [3]): 7.64 ± 4.8 µM
Km (AaFS [4]): 21.3 ± 1.8 µM
SMILES: CC(C)=CCC/C(C)=C/CC/C(C)=C/CO[P@@](=O)(O)OP(=O)(O)O (stereo in doubt) [FPP, farnesyl pyrophosphate]
